Measurements as given in patent US8853263B2, “Co-therapy for the treatment of epilepsy and related disorders” (Janssen Pharmaceutica NV, priority 2006, dated 2014).

First: NS(=O)(=O)NC[C@H]1COc2cc(Cl)c(Cl)cc2O1 [Compound #29, (2S)-(−)-N-(6,7Dichloro-2,3-dihydro-benzo[1,4]dioxin-2-ylmethyl)-sulfamide]
Second: NS(=O)(=O)NCCC1COc2ccccc2O1 (stereo not shown) [Compound #16, 2-(2,3-Dihydro-benzo[1,4]dioxin-2-yl)-ethylsulfamide]
The melting point of the first is higher: 119 to 121 °C for the first, 101 to 103 °C for the second.

First: NS(=O)(=O)NCC1CCc2ccccc2O1 (stereo not shown) [Compound #10, Chroman-2-ylmethylsulfamide]
Second: CN(C)S(=O)(=O)NCC1COc2ccccc2O1 (racemic) [Compound #6, N-(2,3-Dihydro-benzo[1,4]dioxin-2-ylmethyl)-N′,N′dimethylsulfamide]
The melting point of the first is higher: 100 to 101 °C for the first, 76 to 78 °C for the second.
